According to US20090286862A1, “Therapeutic agent for psychoneurotic disease” (ONO PHARMACEUTICAL CO., LTD., priority 2004, published 2009):
Counter-ions that a name gives are not always drawn.

How the values were obtained:
Assay type in all cases: in vivo
olfactory bulbectomy rat [1] = test: Score of emotional responses in olfactory bulbectomy rat (antidepressant effect); conditions: for score of emotional responses: seventh day, Male Wistar olfactory bulbectomy rat, 10 mg/kg orally twice a day for 7 days, control group 20.1±0.7, sham 3.7±3.4
Source text: (§1) Antidepressant Effect and Antianxiety Effect for Olfactory Bulbectomy Rat
(§2) Male Wistar rat was anesthetized by injection of pentobarbital sodium, and fixed the head on a brain positioner. Either side of the bulbus olfactorius region of the head was drilled a hole with dental drill after the scalp incision. The either side of the bulbus olfactorius was aspirated and removed with an aspirator and then, the head was stitched up the scalp. The rat was defined as an olfactory bulbectomy animal. Alternatively, a sham surgery animal was anesthetized, fixed the brain, incised the scalp as well as the olfactory bulbectomy animal. The either side of the bulbus olfactorius region of the head was drilled a hole, and the either side of the bulbus olfactorius was not aspirated and removed and then, the head was stitched up the scalp. The olfactory bulbectomy animals were bred with isolated alone. In contrast, the sham surgery animals were not bred with isolated alone.
The olfactory bulbectomy animals were orally administered each the compound (I) of the present invention (10 mg/kg), the compound as positive control (desipramine hydrochloride (10 mg/kg); Wako Pure Chemical Industries, Ltd.), and control (0.5% methylcellulose suspension (5 mL/kg)) twice a day for 7 days. At that time, reactivity of emotional responses for 10 minutes for the first dosage one hour later of the first day and the seventh day was marked in accordance with an evaluation standard based on Gomi's method (Gomitami, other four people, Japanese pharmacologic magazine, 1983, Vol. 82, p 267-292).

[2] = tested on: corticosterone elevation evoked by administration of sulprostone; test: Inhibitory activity for corticosterone elevation evoked by administration of sulprostone; conditions: Male CD (SD) IGS rat; 10 mg/kg orally 1 hour before sulprostone 0.3 mg/kg subcutaneously; blood 1 hour after
Protocol: Inhibitory Activity for Corticosterone Elevation Evoked by Administration of Sulprostone
Male CD (SD) IGS rat were orally administrated EP3 antagonist [compound (I), compound (II) and compound (III) (respectively, 10 mg/5 mL/kg (0.5% methylcellulose suspension))], the control group were orally administrated 0.5% methylcellulose suspension (5 mL/kg). After being administered for an hour, all groups were administered sulprostone subcutaneously (0.3 mg/4 mL/kg). In contrast, non-evoked group were orally administrated 0.5% methylcellulose suspension (5 mL/kg), and after being administered for an hour, administered physiological saline subcutaneously (4 mL/kg). After 1 hour from subcutaneous administration, rats of all groups were collected blood. The withdrawn blood was added EDTA and aprotinin, centrifuged (12,000 rpm, 3 minutes), and measured the corticosterone concentration in the supernatant by using the method of EIA (Bachem Inc.) or ELISA (Endocrine Technologies Inc.).

olfactory bulbectomy rat [3] = test: Elevated plus-maze in olfactory bulbectomy rat (antianxiety effect); conditions: for antianxiety effect: elevated plus-maze
Source text: as §1, §2
Furthermore, each the olfactory bulbectomy animals and the sham surgery animals administered the compound (I) of the present invention, desipramine hydrochloride or control were located the center of platform toward the open arms on the elevated plus-maze for 10 minutes for the first dosage one hour later of the eighth day, and it was measured within a 5 minutes period. Each the time (second) in the open arms and the close arms were measured with video-imaging behavioral analysis equipment.

| SMILES | effective daily dosage in olfactory bulbectomy rat (olfactory bulbectomy rat [1]; olfactory bulbectomy rat, oral) | score of emotional responses (olfactory bulbectomy rat [1]) | corticosterone elevation (corticosterone concentration in blood) [2] | antidepressant effect (olfactory bulbectomy rat [1]; olfactory bulbectomy rat) | antianxiety effect (olfactory bulbectomy rat [3]) | score of emotional responses (in words) (olfactory bulbectomy rat [1]; olfactory bulbectomy rat, 10 mg/kg orally twice a day, FIG. 2) | time in the open arms on the elevated plus-maze (olfactory bulbectomy rat [3]; eighth day, 1 hour after first dosage, 5 minutes period, FIG. 3) |
| --- | --- | --- | --- | --- | --- | --- | --- |
| CNCCCN1c2ccccc2CCc2ccccc21 [desipramine hydrochloride, reference compound] | 20 mg/kg per day | 7.5±3.4 |  |  |  |  |  |
| Cc1cc(C)cc([C@@H](CC(C)C)NC(=O)c2cc(COc3cc(C)ccc3C)ccc2CCC(=O)O)c1 [compound (III), 3-(2-(((1R)-3-methyl-1-(3,5-dimethylphenyl)butyl)carbamoyl)-4-(2,5-dimethylphenoxymethyl)phenyl)propanoic acid] |  |  | inhibited | equivalent effect | equivalent effect |  |  |
| Cc1cc(C)cc([C@@H](CC(C)C)NC(=O)c2cc(COc3cc(F)ccc3F)ccc2CCC(=O)O)c1 [compound (II), 3-(2-(((1R)-3-methyl-1-(3,5-dimethylphenyl)butyl)carbamoyl)-4-(2,5-difluorophenoxymethyl)phenyl)propanoic acid] |  |  | inhibited | equivalent effect | equivalent effect |  |  |
| Cc1cc(C)cc([C@@H](CC(C)C)NC(=O)c2cc(COc3cc(F)ccc3C)ccc2CCC(=O)O)c1 [compound (I), 3-(2-((((1R)-1-(3,5-dimethylphenyl)-3-methylbutyl)amino)carbonyl)-4-(5-fluoro-2-methylphenoxymethyl)phenyl)propanoic acid] |  | 6.2±4.6 | inhibited | has antidepressant effect | has antianxiety effect | decreased significantly | improved significantly |
